From patent EP1311531B1, “STEROID DERIVED ANTIBIOTICS” (Brigham Young University, priority 2000, dated 2002)
Converted amounts (≈) assume the structure as drawn. Where two headings read alike, the source gives them in different places.

Key:
E. coli (ATCC 10798) [1] = experiment: MIC and MBC measurement; type: cell-based, Escherichia coli
Method: (§1) General: Microorganisms. Reference strains were purchased from the American Type Culture Collection (Rockville, MD) or Bactrol disks from Difeo Laboratories (Detroit, MI). […] Bacterial strains were maintained on Mueller-Hinton agar plates, and Candida albicans was maintained on Sabouraud Dextrose agar plates.
(§2) Aliquots (20 mL) of the homogeneous solution were then poured in sterile plastic petri dishes (100 x 15 mm, Fisher Scientific). Solutions of compounds were made by dissolving the HCl salt of the respective compound into an appropriate amount of deionized and sterilized water followed by microfiltration.
(§3) Aliquots of 1 mL of the suspension were added to test tubes containing 1 mL TSB and incrementally varied concentrations of cholic acid derivatives and/or erythromycin or novobiocin. […] Additionally, an alliquot from each of the samples showing no measurable turbidity was subcultured on TSA plates (alliquots were diluted to provide fewer than 300 CFU). Colonies that grew on the subculture after overnight incubation were counted and the number of CFU/mL in the samples were calculated. The calculated values were compared to the number of CFU/mL in the original inoculum.

E. coli (ATCC 10798) [2] = experiment: Sensitization to erythromycin or novobiocin (outer membrane permeabilization, FIC); type: cell-based, Escherichia coli; conditions: for MBC: Escherichia coli; for concentration required to lower the MIC of erythromycin from 70 µg/mL to 1 µg/mL: Table 2; for (a) Concentration required to lower the MIC of erythromycin from 70 to 1 µg/mL / (b) MBC with 1 µg/mL erythromycin / (d) Concentration required to lower the MIC of novobiocin from >500 to 1 µg/mL / FIC^c (FIC values with erythromycin) / FIC^c (FIC values with novobiocin): Table 9, Escherichia coli (ATCC 10798)
Method: (§4) FICs can be performed by checkerboard titrations of compounds in one dimension of a microtiter plate, and of antibiotics in the other dimension, for example. The FIC is calculated by looking at the impact of one antibiotic on the MIC of the other and vice versa. […] Preferably, an FIC of less than 0.5 is obtained for synergism. As used herein, FIC can be determined as follows: FIC = (MIC(compound in combination))/(MIC(compound alone)) + (MIC(antibiotic in combination))/(MIC(antibiotic alone)) [formula]
(§5) Aliquots of 1 mL of the suspension were added to test tubes containing 1 mL TSB and incrementally varied concentrations of cholic acid derivatives and/or erythromycin or novobiocin. In the sensitization experiments, erythromycin or novobiocin were added 15 minutes later than the cholic acid derivatives. The samples were subjected to stationary incubation at 37°C for 24 hours. Sample turbidity was determined by measuring absorption at 760 nm (HP 8453 UV-Visible Chemstation, Hewlett Packard). Additionally, an alliquot from each of the samples showing no measurable turbidity was subcultured on TSA plates (alliquots were diluted to provide fewer than 300 CFU). Colonies that grew on the subculture after overnight incubation were counted and the number of CFU/mL in the samples were calculated. The calculated values were compared to the number of CFU/mL in the original inoculum.
They were also tested for the ability to permeabilize the outer membrane of Gram-negative bacteria, causing sensitization to hydrophobic antibiotics that cannot cross the outer membrane. The permeabilization of the outer membrane was measured using erythromycin and novobiocin.

[3] = test system: Pseudomonas aeruginosa ATCC 27853; experiment: MIC and MBC measurement; type: cell-based
Method: as §1, §2, §3

[4] = test system: Pseudomonas aeruginosa ATCC 27853; experiment: Sensitization to erythromycin, novobiocin or rifampicin (permeabilization, FIC); type: cell-based; conditions: Table 7; P. aureginosa (ATCC 27853); with erythromycin
Method: as §4, §5
Concentrations of 0.5, 1.0 or 3.0 µg/mL of these antibiotics were used, and the concentrations of the cholic acid derivatives required to inhibit bacterial growth of Gram-negative strains were determined.

[5] = test system: Escherichia coli ATCC 25922; experiment: MIC and MBC measurement; type: cell-based; conditions: Escherichia coli, ATCC25922, antibiotic alone; E. coli (ATCC 25922); read-out: MIC
Text: General: Microorganisms. Reference strains were purchased from the American Type Culture Collection (Rockville, MD) or Bactrol disks from Difeo Laboratories (Detroit, MI). The following specific ATCC strains were used: 10798 Escherichia coli, 25922 Escherichia coli, 13883 Klebsiella pneumoniae, 27853 Pseudomonas aeruginosa, 14028 Salmonella typhimurium, 29212 Enterococcus faecalis, 25923 Staphylococcus aureus, 19615 Streptococcus pyogenes, and 90028 Candida albicans. Bacterial strains were maintained on Mueller-Hinton agar plates, and Candida albicans was maintained on Sabouraud Dextrose agar plates.
Tryptic soy broth (TSB) was made by dissolving 27.5 grams of tryptic soy broth without dextrose (DIFCO Laboratories) in 1 liter of deionized water and sterilizing at 121 °C for 15 minutes. Solid agar (TSA) plates were made by dissolving 6.4 grams of tryptic soy broth and 12 grams of agar (purified grade, Fischer Scientific) in 800 mL of deionized water and sterilizing at 121 °C for 20 minutes. Aliquots (20 mL) of the homogeneous solution were then poured in sterile plastic petri dishes (100 x 15 mm, Fisher Scientific). Solutions of compounds were made by dissolving the HCl salt of the respective compound into an appropriate amount of deionized and sterilized water followed by microfiltration.
as §5, with “inoculum. […]” for “inoculum.”

[6] = Escherichia coli, ATCC10798, Table 1, E. coli (ATCC 10798), read-out: MBC
[7] = Escherichia coli, ATCC10798, Table 1, E. coli (ATCC 10798), read-out: MIC
[8] = Table 9, Escherichia coli (ATCC 10798)
[9] = ATCC10798, Table 2, E. coli (ATCC 10798), with erythromycin
[10] = E. coli (ATCC 10798), with erythromycin
[11] = ATCC10798, Table 9, Escherichia coli (ATCC 10798), read-out: MBC
[12] = ATCC10798, Table 9, Escherichia coli (ATCC 10798), read-out: MIC
[13] = Escherichia coli, ATCC10798, antibiotic alone, E. coli (ATCC 10798), read-out: MIC
[14] = ATCC27853, antibiotic alone, P. aureginosa (ATCC 27853)
[15] = ATCC27853, Table 6, P. aureginosa (ATCC 27853)

SMILES	MIC (E. coli (ATCC 10798) [1]; [7])	concentration required to lower the MIC of erythromycin from 70 µg/mL to 1 µg/mL (E. coli (ATCC 10798) [2]; [10])	(a) Concentration required to lower the MIC of erythromycin from 70 to 1 µg/mL (E. coli (ATCC 10798) [2])	(b) MBC with 1 µg/mL erythromycin (E. coli (ATCC 10798) [2])	(d) Concentration required to lower the MIC of novobiocin from >500 to 1 µg/mL (E. coli (ATCC 10798) [2])	FIC^c (FIC values with erythromycin) (E. coli (ATCC 10798) [2])	FIC^c (FIC values with novobiocin) (E. coli (ATCC 10798) [2])	MBC (E. coli (ATCC 10798) [1]; [11])	MIC (E. coli (ATCC 10798) [1]; [12])	also measured
CC(O)[C@H]1CC[C@H]2[C@@H]3[C@H](OCCCN)C[C@@H]4C[C@H](OCCCN)CC[C@]4(C)[C@H]3C[C@H](OCCCN)[C@]12C (stereo partly shown) [Compound 11]	140 µg/mL (≈ 267 µM)	40 µg/mL	20 µg/mL	180 µg/mL	40 µg/mL	0.16	0.29			MBC (E. coli (ATCC 10798) [1]; [6]): > 160 µg/mL; MBC (E. coli (ATCC 10798) [1]; [8]): >160 µg/mL; MIC (E. coli (ATCC 10798) [1]; [8]): 140 µg/mL (≈ 267 µM); MBC (E. coli (ATCC 10798) [2]; [9]): > 160 µg/mL; MBC (E. coli (ATCC 10798) [2]; ATCC10798, Table 3, E. coli (ATCC 10798), with novobiocin): 140 µg/mL
C[C@H](CCO)[C@H]1CC[C@H]2[C@@H]3[C@H](OCCCN)C[C@@H]4C[C@H](OCCCN)CC[C@]4(C)[C@H]3C[C@H](OCCCN)[C@]12C [Compound 109]			4.0 µg/mL	80 µg/mL	15 µg/mL	0.071	0.22	120 µg/mL (≈ 217 µM)	70 µg/mL (≈ 127 µM)	
CO[C@@H]1[C@@H](OC(N)=O)[C@@H](O)[C@H](Oc2ccc3c(O)c(NC(=O)c4ccc(O)c(CC=C(C)C)c4)c(=O)oc3c2C)OC1(C)C [novobiocin, reference compound]										MIC (E. coli (ATCC 10798) [1]; [13]): > 500 µg/mL; MIC [3, 14]: > 500 µg/mL
CCCCCCCCOCCC[C@@H](C)[C@H]1CC[C@H]2[C@@H]3[C@H](OCCCN)C[C@@H]4C[C@H](OCCCN)CC[C@]4(C)[C@H]3C[C@H](OCCCN)[C@]12C [Compound 9]	3 µg/mL (≈ 4.42 µM)	3 µg/mL	3.0 µg/mL	3.0 µg/mL		1.0				concentration required to lower the MIC of erythromycin from 240 µg/mL to 5 µg/mL [4]: 5 µg/mL; MBC (E. coli (ATCC 10798) [1]; [6]): 10 µg/mL (≈ 14.7 µM); MBC (E. coli (ATCC 10798) [1]; [8]): 10 µg/mL (≈ 14.7 µM); MIC (E. coli (ATCC 10798) [1]; [8]): 3.0 µg/mL (≈ 4.42 µM); MBC (E. coli (ATCC 10798) [2]; [9]): 3 µg/mL; MIC [3, 15]: 8 µg/mL (≈ 11.8 µM)
C[C@H](CCCOCCC[C@@H](C)[C@H]1CC[C@H]2[C@@H]3[C@H](OCCCN)C[C@@H]4C[C@H](OCCCN)CC[C@]4(C)[C@H]3C[C@H](OCCCN)[C@]12C)[C@H]1CC[C@H]2[C@@H]3[C@H](OCCCN)C[C@@H]4C[C@H](OCCCN)CC[C@]4(C)[C@H]3C[C@H](OCCCN)[C@]12C [Compound 12]	4 µg/mL (≈ 3.59 µM)	1.5 µg/mL								MBC (E. coli (ATCC 10798) [1]; [6]): 4 µg/mL (≈ 3.59 µM); MBC (E. coli (ATCC 10798) [2]; [9]): 2.5 µg/mL
C[C@H](CCCOS(=O)(=O)O)[C@H]1CC[C@H]2[C@@H]3[C@H](OCCCN)C[C@@H]4C[C@H](OCCCN)CC[C@]4(C)[C@H]3C[C@H](OCCCN)[C@]12C [Compound 132]										MIC (E. coli (ATCC 10798) [1]; Escherichia coli, ATCC10798, E. coli (ATCC 10798), read-out: MIC): 60 µg/mL (≈ 92.9 µM); concentration required to lower the MIC of erythromycin to 1 µg/mL (E. coli (ATCC 10798) [2]; E. coli (ATCC 10798)): 4.0 µg/mL
C[C@H](CO)[C@H]1CC[C@H]2[C@@H]3[C@H](OCCCN)C[C@@H]4C[C@H](OCCCN)CC[C@]4(C)[C@H]3C[C@H](OCCCN)[C@]12C [Compound 108]			4.0 µg/mL	140 µg/mL	12 µg/mL	0.071	0.17	140 µg/mL (≈ 260 µM)	70 µg/mL (≈ 130 µM)	
CC[C@H]1OC(=O)[C@H](C)[C@@H](O[C@H]2C[C@@](C)(OC)[C@@H](O)[C@H](C)O2)[C@H](C)[C@@H](O[C@@H]2O[C@H](C)C[C@H](N(C)C)[C@H]2O)[C@](C)(O)C[C@@H](C)C(=O)[C@H](C)[C@@H](O)[C@]1(C)O [erythromycin, reference compound]										MIC (E. coli (ATCC 10798) [1]; [13]): 70 µg/mL (≈ 95.4 µM); MIC [5]: 30 µg/mL (≈ 40.9 µM); MIC [3, 14]: 240 µg/mL (≈ 327 µM)
CCCCCOCCC[C@@H](C)[C@H]1CC[C@H]2[C@@H]3[C@H](OCCCN)C[C@@H]4C[C@H](OCCCN)CC[C@]4(C)[C@H]3C[C@H](OCCCN)[C@]12C [Compound 113]			0.8 µg/mL	2.0 µg/mL	1.0 µg/mL	0.28	0.27	5 µg/mL (≈ 7.86 µM)	3 µg/mL (≈ 4.72 µM)	
C[C@H](CCCN(C)Cc1ccccc1)[C@H]1CC[C@H]2[C@@H]3[C@H](OCCN)C[C@@H]4C[C@@H](OCCN)CC[C@]4(C)[C@H]3C[C@H](OCCN)[C@]12C [Compound 8]	46 µg/mL (≈ 73.4 µM)	10 µg/mL								concentration required to lower the MIC of erythromycin from 240 µg/mL to 5 µg/mL [4]: 40 µg/mL; MIC [3, 15]: 50 µg/mL (≈ 79.7 µM)
C[C@H](CCCN(C)Cc1ccccc1)[C@H]1CC[C@H]2[C@@H]3[C@H](OCCCCN)C[C@@H]4C[C@H](OCCCCN)CC[C@]4(C)[C@H]3C[C@H](OCCCCN)[C@]12C [Compound 3]	6 µg/mL (≈ 8.44 µM)	1.5 µg/mL								concentration required to lower the MIC of erythromycin from 240 µg/mL to 5 µg/mL [4]: 6 µg/mL; MIC [3, 15]: 16 µg/mL (≈ 22.5 µM)
COCCC[C@@H](C)[C@H]1CC[C@H]2[C@@H]3[C@H](OCCCN)C[C@@H]4C[C@H](OCCCN)CC[C@]4(C)[C@H]3C[C@H](OCCCN)[C@]12C [Compound 111]			1.0 µg/mL	20 µg/mL	2.0 µg/mL	0.048	0.069	33 µg/mL (≈ 56.9 µM)	30 µg/mL (≈ 51.7 µM)	
